In brackets after ≈: the same amount, converted by molar mass.
Columns and labels:
[1] = system: wild-type B. fungorum LB400; assay: Natural chloramphenicol resistance seen during selection of transconjugants; type: cell-based, Burkholderia fungorum; settings: citrate medium
Method: A ΔflhA::kan mutant of B. fungorum LB400 was generated by introducing pCM363 by conjugation. […] One tetracycline-sensitive strain representing a ΔfIhA::kan mutant, CM363K.1, was chosen for further study. The plasmid pCM157 was used as described above to produce the ΔflhA strain CM363.1. Analytical PCR was performed with wild-type B. fungorum LB400, CM363K.1, and CM363.1 for confirmation (data not shown).

SMILES	MIC (ΔflhA strain CM363.1)	naturally resistant below [1]
C=O [formaldehyde]	100 µM (≈ 3 µg/mL)	
O=C(N[C@H](CO)[C@H](O)c1ccc([N+](=O)[O-])cc1)C(Cl)Cl [chloramphenicol]		10 to 20 µg/mL
